Where a name gives a salt, the structure may show the parent alone.
tested on: IL-6; experiment: Measurement of LPS Induced IL-6 Secretion from Whole Blood; format: cell-based; conditions: 24 h, LPS 200 ng/ml, immunoassay, read-out: pIC50, LPS induced IL-6 secretion from whole blood (converted)
Experimental: Measurement of LPS Induced IL-6 Secretion from Whole Blood
Activation of monocytic cells by agonists of toll-like receptors such as bacterial lipopolysaccharide (LPS) results in production of key inflammatory mediators including IL-6. Such pathways are widely considered to be central to the pathophysiology of a range of auto-immune and inflammatory disorders.
Compounds to be tested are diluted to give a range of appropriate concentrations of which 1 ul of the diluted stocks is added to a 96 well plate. Following addition of whole blood (130 ul) the plates are incubated at 37 degrees (5% CO2) for 30 min before the addition of 10 ul of 2.8 ug/ml LPS, diluted in complete RPMI 1640 (final concentration=200 ng/ml), to give a total volume of 140 ul per well. After further incubation for 24 hours at 37 degrees, 140 ul of PBS are added to each well. The plates are sealed, shaken for 10 minutes and then centrifuged (2500 rpm×10 min). 100 ul of the supernatant are removed and IL-6 levels assayed by immunoassay (typically by MesoScale Discovery technology) either immediately or following storage at −20 degrees. Concentration response curves for each compound was generated from the data and an IC50 value was calculated.

IC50, ≤ 31.6 µM:
CC(=O)N1c2ccc(-c3ccc(N)nc3)cc2[C@H](NC(=O)OC(C)C)C[C@@H]1C [Example 110, 1-methylethyl[(2S,4R)-1-acetyl-6-(6-amino-3-pyridinyl)-2-methyl-1,2,3,4-tetrahydro-4-quinolinyl]carbamate]
CC(=O)N1c2ccc(-n3cnc(C)c3)cc2[C@H](NC(=O)OC(C)(C)C)C[C@@H]1C (relative stereo) [Example 123, 1,1-Dimethylethyl[(cis)-1-acetyl-2-methyl-6-(4-methyl-1H-imidazol-1-yl)-1,2,3,4-tetrahydro-4-quinolinyl]carbamate]
CC(=O)N1c2ccc(-n3cnc(C)c3)cc2[C@H](NC(=O)OC(C)C)C[C@@H]1C [Example 84, 1-Methylethyl[(2S,4R)-1-acetyl-2-methyl-6-(4-methyl-1H-imidazol-1-yl)-1,2,3,4-tetrahydro-4-quinolinyl]carbamate]
CC(=O)N1c2ccc(-c3ccc(CCC(=O)O)cc3)cc2[C@H](NC(=O)OC(C)C)C[C@@H]1C [Example 102, 3-{4-[(2S,4R)-1-Acetyl-2-methyl-4-({[(1-methylethyl)oxy]carbonyl}amino)-1,2,3,4-tetrahydro-6-quinolinyl]phenyl}propanoic acid]
CC(=O)N1c2ccc(-c3cn(CCCN(C)C)nn3)cc2[C@H](NC(=O)OC(C)C)C[C@@H]1C [Example 81, 1-Methylethyl((2S,4R)-1-acetyl-6-{1-[3-(dimethylamino)propyl]-1H-1,2,3-triazol-4-yl}-2-methyl-1,2,3,4-tetrahydro-4-quinolinyl)carbamate formate salt]
CC(=O)N1c2ccc(-c3ccccc3C)cc2[C@H](NC(=O)OC(C)C)C[C@@H]1C [Example 93, 1-Methylethyl[(2S,4R)-1-acetyl-2-methyl-6-(2-methylphenyl)-1,2,3,4-tetrahydro-4-quinolinyl]carbamate]
CC(=O)N1c2ccc(-c3cn(CCN)nn3)cc2[C@H](NC(=O)OC(C)C)C[C@@H]1C [Example 79, 1-Methylethyl {(2S,4R)-1-acetyl-6-[1-(2-aminoethyl)-1H-1,2,3-triazol-4-yl]-2-methyl-1,2,3,4-tetrahydro-4-quinolinyl}carbamate hydrochloride]
CC(=O)N1c2ccc(-c3cn(C)cn3)cc2[C@H](NC(=O)OC(C)C)CC1C (stereo partly drawn) [Example 83, 1-Methylethyl[(2S,4R)-1-acetyl-2-methyl-6-(1-methyl-1H-imidazol-4-yl)-1,2,3,4-tetrahydro-4-quinolinyl]carbamate hydrochloride]
CC(=O)N1c2ccc(-c3cn(CCN)cn3)cc2[C@H](NC(=O)OC(C)C)C[C@@H]1C [Example 85, 1-Methylethyl {(2S,4R)-1-acetyl-6-[1-(2-aminoethyl)-1H-imidazol-4-yl]-2-methyl-1,2,3,4-tetrahydro-4-quinolinyl}carbamate hydrochloride]
CC(=O)N1c2ccc(-n3cnc(C(=O)O)c3)cc2[C@@H](NC(=O)OC(C)C)C[C@H]1C (racemic) [Example 87, 1-[(Cis)-1-acetyl-2-methyl-4-({[(1-methylethyl)oxy]carbonyl}amino)-1,2,3,4-tetrahydro-6-quinolinyl]-1H-imidazole-4-carboxylic acid]
CC(=O)N1c2ccc(-c3noc(CN)n3)cc2[C@H](NC(=O)OC(C)C)C[C@@H]1C [Example 66, 1-Methylethyl {(2S,4R)-1-acetyl-6-[5-(aminomethyl)-1,2,4-oxadiazol-3-yl]-2-methyl-1,2,3,4-tetrahydro-4-quinolinyl}carbamate hydrochloride]
CC(=O)N1c2ccc(-c3cn(CCCN)nn3)cc2[C@H](NC(=O)OC(C)C)C[C@@H]1C [Example 74, 1-Methylethyl {(2S,4R)-1-acetyl-6-[1-(3-aminopropyl)-1H-1,2,3-triazol-4-yl]-2-methyl-1,2,3,4-tetrahydro-4-quinolinyl}carbamate hydrochloride]
CC(=O)N1c2ccc(-c3nnc(C)s3)cc2[C@H](NC(=O)OC(C)C)C[C@@H]1C [Example 68, 1-Methylethyl[(2S,4R)-1-acetyl-2-methyl-6-(5-methyl-1,3,4-thiadiazol-2-yl)-1,2,3,4-tetrahydro-4-quinolinyl]carbamate]
CC(=O)N1c2ccc(-c3cn(CCC(=O)O)cn3)cc2[C@@H](NC(=O)OC(C)C)C[C@H]1C (racemic) [Example 99, 3-{(Cis)-4-[1-acetyl-2-methyl-4-({[(1-methylethyl)oxy]carbonyl}amino)-1,2,3,4-tetrahydro-6-quinolinyl]-1H-imidazol-1-yl}propanoic acid trifluoroacetate]
CC(=O)N1c2ccc(-c3noc(C)n3)cc2[C@H](NC(=O)OC(C)C)C[C@@H]1C [Example 64, 1-Methylethyl[(2S,4R)-1-acetyl-2-methyl-6-(5-methyl-1,2,4-oxadiazol-3-yl)-1,2,3,4-tetrahydro-4-quinolinyl]carbamate]
CC(=O)N1c2ccc(-c3cnn(CC(C)(C)O)c3)cc2[C@H](NC(=O)OC(C)C)C[C@@H]1C [Example 109, 1-Methylethyl {(2S,4R)-1-acetyl-6-[1-(2-hydroxy-2-methylpropyl)-1H-pyrazol-4-yl]-2-methyl-1,2,3,4-tetrahydro-4-quinolinyl}carbamate]
CC(=O)N1c2ccc(-c3ccc(CCN)cc3)cc2[C@H](NC(=O)OC(C)C)C[C@@H]1C [Example 96, 1-Methylethyl {(2S,4R)-1-acetyl-6-[4-(2-aminoethyl)phenyl]-2-methyl-1,2,3,4-tetrahydro-4-quinolinyl}carbamate hydrochloride]
CC(=O)N1c2ccc(-n3ccnc3C)cc2[C@H](NC(=O)OC(C)C)C[C@@H]1C [Example 88, 1-Methylethyl[(2S,4R)-1-acetyl-2-methyl-6-(2-methyl-1H-imidazol-1-yl)-1,2,3,4-tetrahydro-4-quinolinyl]carbamate]
COCn1cc(-c2ccc3c(c2)[C@H](NC(=O)OC(C)C)C[C@H](C)N3C(C)=O)cn1 [Example 106, 1-Methylethyl((2S,4R)-1-acetyl-2-methyl-6-{1-[(methyloxy)methyl]-1H-pyrazol-4-yl}-1,2,3,4-tetrahydro-4-quinolinyl)carbamate]
CC(=O)N1c2ccc(-c3cncn3C)cc2[C@H](NC(=O)OC(C)C)C[C@@H]1C [Example 82, 1-Methylethyl[(2S,4R)-1-acetyl-2-methyl-6-(1-methyl-1H-imidazol-5-yl)-1,2,3,4-tetrahydro-4-quinolinyl]carbamate]
CC(=O)N1c2ccc(-n3cnc(C)c3)cc2[C@H](NC(=O)OC(C)C)C[C@@H]1C (single isomer, unassigned) [Example 103]
CC(=O)N1c2ccc(-c3noc(CCN(C)C)n3)cc2[C@H](NC(=O)OC(C)C)C[C@@H]1C [Example 78, 1-Methylethyl((2S,4R)-1-acetyl-6-{5-[2-(dimethylamino)ethyl]-1,2,4-oxadiazol-3-yl}-2-methyl-1,2,3,4-tetrahydro-4-quinolinyl)carbamate hydrochloride]
CC(=O)N1c2ccc(-c3ccc(CC(=O)O)cc3)cc2[C@H](NC(=O)OC(C)C)C[C@@H]1C [Example 67, {4-[(2S,4R)-1-Acetyl-2-methyl-4-({[(1-methylethyl)oxy]carbonyl}amino)-1,2,3,4-tetrahydro-6-quinolinyl]phenyl}acetic acid]
CC(=O)N1c2ccc(-n3cnc(CO)c3)cc2[C@@H](NC(=O)OC(C)C)C[C@H]1C (racemic) [Example 89, 1-Methylethyl {(cis)-1-acetyl-6-[4-(hydroxymethyl)-1H-imidazol-1-yl]-2-methyl-1,2,3,4-tetrahydro-4-quinolinyl}carbamate]
CC(=O)N1c2ccc(-c3ccccn3)cc2[C@H](NC(=O)OC(C)C)C[C@@H]1C [Example 101, 1-Methylethyl[(2S,4R)-1-acetyl-2-methyl-6-(2-pyridinyl)-1,2,3,4-tetrahydro-4-quinolinyl]carbamate]
CC(=O)N1c2ccc(-c3nc(CCN)no3)cc2[C@H](NC(=O)OC(C)C)C[C@@H]1C [Example 70, 1-Methylethyl {(2S,4R)-1-acetyl-6-[3-(2-aminoethyl)-1,2,4-oxadiazol-5-yl]-2-methyl-1,2,3,4-tetrahydro-4-quinolinyl}carbamate hydrochloride]
CNCCc1noc(-c2ccc3c(c2)[C@H](NC(=O)OC(C)C)C[C@H](C)N3C(C)=O)n1 [Example 71, 1-Methylethyl((2S,4R)-1-acetyl-2-methyl-6-{3-[2-(methylamino)ethyl]-1,2,4-oxadiazol-5-yl}-1,2,3,4-tetrahydro-4-quinolinyl)carbamate hydrochloride]
CC(=O)N1c2ccc(-c3cn(CC(=O)O)cn3)cc2[C@@H](NC(=O)OC(C)C)C[C@H]1C (racemic) [Example 90, {4-[(Cis)-1-acetyl-2-methyl-4-({[(1-methylethyl)oxy]carbonyl}amino)-1,2,3,4-tetrahydro-6-quinolinyl]-1H-imidazol-1-yl}acetic acid trifluoroacetate]
CC(=O)N1c2ccc(-c3cn(CC(=O)O)nn3)cc2[C@H](NC(=O)OC(C)C)C[C@@H]1C [Example 76, {4-[(2S,4R)-1-Acetyl-2-methyl-4-({[(1-methylethyl)oxy]carbonyl}amino)-1,2,3,4-tetrahydro-6-quinolinyl]-1H-1,2,3-triazol-1-yl}acetic acid]
